Reference: article PMC11542830, “3-nitropyridine analogues as novel microtubule-targeting agents” (PLOS ONE, 2024)

Key:
Jurkat cells [1] = assay: 3-day MTS cell viability assay, Jurkat; format: cell-based; settings: Homo sapiens, 72 hours, Fig 1C
Method: (§1) All cancer cell lines (HT-29: colorectal adenocarcinoma, HCT-116: colorectal carcinoma, A549: lung epithelial carcinoma, PC3: prostate adenocarcinoma, Jurkat: acute T-cell leukemia, BC-1: primary effusion lymphoma) and the normal human embryonal lung fibroblast cell line MRC-5 were acquired from the American Type Culture Collection (ATCC). All cell lines were cultured as recommended by the suppliers. Culture media were purchased from Gibco (Thermo Fisher Scientific) and supplemented with 10 to 20% fetal bovine serum (HyClone, GE Healthcare Life Sciences) and 20–25 μg/mL gentamicin (Gibco, Thermo Fisher Scientific). […]
(§2) Cell viability in cancer cell lines treated with compound was measured in a 3-day MTS cell proliferation assay using the CellTiter 96 AQueous Non-Radioactive Cell Proliferation Assay reagent (Promega) according to the manufacturer’s instructions. Absorbance was read at 490 nm on a SaFire II microplate reader (Tecan). CC50 values were calculated by fitting the obtained MTS cell viability data in GraphPad Prism using a 4-parameter log–based fit for inhibitors. Apoptosis induction and cell death upon compound treatment in PBMC was measured using the Alexa Fluor 488 Annexin V/Dead Cell Apoptosis Kit (Thermo Fisher Scientific), with readout on a FACSCanto II flow cytometer (BD Biosciences). […] The compounds were evaluated in duplo in two independent experiments.

PBMC = assay: Annexin V/PI flow cytometry viability, PBMC; format: cell-based; settings: Homo sapiens, 72 hours, normal cells, Fig 1C
Text: Buffy coat preparations from healthy donors were obtained from the Blood Transfusion Center in Leuven, Belgium. Peripheral blood mononuclear cells (PBMC) were isolated by density gradient centrifugation over Lymphoprep™ (Axis Shield PoC AS; density 1.077 ± 0.001 g/mL) and cultured in cell culture medium (DMEM/F12, Gibco Thermo Fisher Scientific) containing 8% fetal bovine serum. Each donor consented to the use of his blood for research purposes.
as §2, with “Biosciences). For cell cycle analysis, Jurkat cells were seeded at 400,000 cells per well in 12-well tissue culture plates and treated with the test compounds at the indicated concentrations for 24 h.” for “Biosciences).”

MRC-5 cells = assay: 3-day MTS cell viability assay, MRC-5; format: cell-based; settings: Homo sapiens, MRC5, 72 hours, normal lung fibroblast cells, Fig 1C
Method: as §1, §2

Jurkat cells [2] = assay: Apoptosis induction, annexin V/PI staining, Jurkat; format: cell-based, human; settings: 24 hours, dose-dependent
HL-60(TB) = assay: NCI60 5-dose screen, HL-60(TB); format: cell-based; settings: Homo sapiens, leukemia, Fig 1D, read-out: Log10 GI50 (HL-60(TB)) (converted)
Method: (§3) The screening methodology used in the NCI60 Cell 5-Doses screen is described in detail at https://dtp.cancer.gov/discovery_development/nci-60/methodology.htm. Briefly, cells are seeded in 96 well plates at an appropriate density and incubated for 1 day. After 1 day, some of the plates are processed to determine a time zero density. To the remaining plates, compounds are added over a 5-log M concentration range (1 log dilutions from 10^-4M to 10^-8M). Plates are incubated for two additional days, then fixed and stained with sulforhodamine B. Growth inhibition is calculated relative to cells without drug treatment and the time zero control. The GI50 is the concentration of a compound that causes 50% growth inhibition, relative to the no drug control.

NCI-H522 = assay: NCI60 5-dose screen, NCI-H522; format: cell-based; settings: Homo sapiens, non-small cell lung cancer, Fig 1D, read-out: Log10 GI50 (NCI-H522) (converted)
Method: as §3

HCC-2998 = assay: NCI60 5-dose screen, HCC-2998; format: cell-based; settings: Homo sapiens, colon cancer, Fig 1D, read-out: Log10 GI50 (HCC-2998) (converted)
Method: as §3

HCT-116 = assay: NCI60 5-dose screen, HCT-116; format: cell-based; settings: Homo sapiens, colon cancer, Fig 1D, read-out: Log10 GI50 (HCT-116) (converted)
Method: as §3

HT29 = assay: NCI60 5-dose screen, HT29; format: cell-based; settings: Homo sapiens, HT-29; colon cancer; Fig 1D; read-out: Log10 GI50 (HT29) (converted)
Method: as §3

SNB-75 = assay: NCI60 5-dose screen, SNB-75; format: cell-based; settings: Homo sapiens, CNS cancer, Fig 1D, read-out: Log10 GI50 (SNB-75) (converted)
Method: as §3

MDA-MB-435 = assay: NCI60 5-dose screen, MDA-MB-435; format: cell-based; settings: Homo sapiens, melanoma, Fig 1D, read-out: Log10 GI50 (MDA-MB-435) (converted)
Method: as §3

SK-MEL-5 = assay: NCI60 5-dose screen, SK-MEL-5; format: cell-based; settings: Homo sapiens, melanoma, Fig 1D, read-out: Log10 GI50 (SK-MEL-5) (converted)
Method: as §3

786-0 = assay: NCI60 5-dose screen, 786-0; format: cell-based; settings: Homo sapiens, renal cancer, Fig 1D, read-out: Log10 GI50 (786-0) (converted)
Method: as §3

A498 = assay: NCI60 5-dose screen, A498; format: cell-based; settings: Homo sapiens, renal cancer, Fig 1D, read-out: Log10 GI50 (A498) (converted)
Method: as §3

MCF7 = assay: NCI60 5-dose screen, MCF7; format: cell-based; settings: Homo sapiens, breast cancer, Fig 1D, read-out: Log10 GI50 (MCF7) (converted)
Method: as §3

MDA-MB-468 = assay: NCI60 5-dose screen, MDA-MB-468; format: cell-based; settings: Homo sapiens, breast cancer, Fig 1D, read-out: Log10 GI50 (MDA-MB-468) (converted)
Method: as §3

| Structure (SMILES) | IC50 (Jurkat cells [1]) | IC50 (PBMC) | IC50 (MRC-5 cells) | apoptosis induction (Jurkat cells [2]) | GI50 (HL-60(TB)) | GI50 (NCI-H522) | GI50 (HCC-2998) | GI50 (HCT-116) | GI50 (HT29) | GI50 (SNB-75) | GI50 (MDA-MB-435) | GI50 (SK-MEL-5) | GI50 (786-0) | GI50 (A498) | GI50 (MCF7) | GI50 (MDA-MB-468) |
| --- | --- | --- | --- | --- | --- | --- | --- | --- | --- | --- | --- | --- | --- | --- | --- | --- |
| Cc1cc(C)cc(Nc2ccc([N+](=O)[O-])c(NCCN3CCOCC3)n2)c1 [Compound 4AZA2891, 6-(3,5-dimethylanilino)-2-(2-morpholinoethylamino)-3-nitropyridine] | 0.0198 µM | 76.7 µM | 29.6 µM | induce apoptosis | 0.0257 µM | < 0.01 µM | 0.0288 µM | 0.0148 µM | 0.0186 µM | < 0.01 µM | < 0.01 µM | < 0.01 µM | 0.0525 µM | < 0.01 µM | < 0.01 µM | < 0.01 µM |
| Cc1ccnc(Nc2ccc([N+](=O)[O-])c(NCCN3CCOCC3)n2)c1 [Compound 4AZA2996, N^6-(4-methylpyridin-2-yl)-N^2-(2-morpholinoethyl)-3-nitropyridine-2,6-diamine] | 0.014 µM | 14.1 µM | 23.3 µM | induce apoptosis | < 0.01 µM | < 0.01 µM | 0.017 µM | < 0.01 µM | < 0.01 µM | < 0.01 µM | < 0.01 µM | < 0.01 µM | 0.0129 µM | < 0.01 µM | < 0.01 µM | 0.0275 µM |
